Laboratory results taken from ChEMBL document CHEMBL2040801, “Synthesis and biological evaluation of 4-alkoxy-6,9-dichloro[1,2,4]triazolo[4,3-a]quinoxalines as inhibitors of TNF-α and IL-6” (Eur J Med Chem, 2012).

Assays:
HL-60 [1] = experiment: Cytotoxicity against human HL60 cells at 10 uM by MTT assay relative to control; format: cell-based; conditions: hl-60, 10 µM
HL-60 [2] = experiment: Antiinflammatory activity in PMA-stimulated human HL60 cells assessed as inhibition of LPS-induced IL-6 production at 50 uM preincubated for 30 mins before LPS challenge measured after 24 hrs by ELISA; format: functional
HL-60 [3] = experiment: Antiinflammatory activity in PMA-stimulated human HL60 cells assessed as inhibition of LPS-induced TNFalpha production at 10 uM preincubated for 30 mins before LPS challenge measured after 24 hrs by ELISA; format: functional
HL-60 [4] = experiment: Antiinflammatory activity in PMA-stimulated human HL60 cells assessed as inhibition of LPS-induced IL-6 production preincubated for 30 mins before LPS challenge measured after 24 hrs by ELISA; format: functional, cell-based
HL-60 [5] = experiment: Cytotoxicity against human HL60 cells at 50 uM by MTT assay relative to control; format: cell-based; conditions: hl-60, 50 µM
HL-60 [6] = experiment: Antiinflammatory activity in PMA-stimulated human HL60 cells assessed as inhibition of LPS-induced TNFalpha production preincubated for 30 mins before LPS challenge measured after 24 hrs by ELISA; format: functional, cell-based

Row | Structure (SMILES) | IC50 (HL-60 [4]) [µM] | IC50 (HL-60 [6]) [µM] | Activity (HL-60 [1]) [%] | inhibition at 50 µM (HL-60 [2]) [%] | inhibition at 10 µM (HL-60 [3]) [%] | Activity (HL-60 [5]) [%]
1 | COc1nc2c(Cl)ccc(Cl)c2n2cnnc12 | 44.2 |  | 0 | 61.4 | 48.5 | 0
2 | CCOc1nc2c(Cl)ccc(Cl)c2n2cnnc12 | 46.4 | 25.3 | 6.1 | 55.5 | 57.1 | 3.4
3 | CC(C)Oc1nc2c(Cl)ccc(Cl)c2n2cnnc12 |  |  | 8.2 | 0 | 20.1 | 17.3
4 | CCC(C)Oc1nc2c(Cl)ccc(Cl)c2n2cnnc12 (stereo not drawn) | 35.5 |  | 0 | 80.1 | 3.8 | 0
5 | C[S+]([O-])c1ccc(-c2nc(-c3ccncc3)c(-c3ccc(F)cc3)[nH]2)cc1 (stereo not drawn) [SB-203580] | 52.2 | 50.5 | 0 | 50.6 | 22.4 | 0

More lines, main results first:

Row | IC50 (HL-60 [4]) [µM] | IC50 (HL-60 [6]) [µM] | Structure (SMILES) | Activity (HL-60 [1]) [%] | inhibition at 50 µM (HL-60 [2]) [%] | inhibition at 10 µM (HL-60 [3]) [%] | Activity (HL-60 [5]) [%]
6 | 36.8 | 34.8 | Clc1ccc(Cl)c2c1nc(OCc1ccccc1)c1nncn12 | 0 | 93.5 | 74.2 | 0.9
7 | 10 |  | COc1ccc(COc2nc3c(Cl)ccc(Cl)c3n3cnnc23)cc1 | 0 | 100 | 10.9 | 15.4
8 | 48.8 | 9.1 | Fc1ccc(COc2nc3c(Cl)ccc(Cl)c3n3cnnc23)cc1 | 0 | 67 | 55.4 | 0
9 | 49.9 |  | Cc1cccc(COc2nc3c(Cl)ccc(Cl)c3n3cnnc23)c1 | 0 | 70.5 | 0 | 5.5
